Data on 3 molecules can be found in patent EP4722207A1, “OXOISOINDOLINYL-SUBSTITUTED TETRAHYDROPYRIMIDINEDIONE DERIVATIVE AND USE THEREOF” (Gluetacs Therapeutics (Shanghai) Co., Ltd., priority 2023, dated 2024).

The target in test [1] is T1, WEE1 (Homo sapiens, UniProt P30291+Q96SW2).
T1 construct: effects of the compounds of the present disclosure on the expression of target proteins in cells; endogenous in cells; host or cells: human PBMCs (hPBMCs)
Nature of the test: Western-blot assay, substrate protein degradation in hPBMCs: WEE1. Type of test: cell-based. The note with it: compounds at 50 nM and 500 nM, 24 hours.

The target in test [2] is T2, IKZF1 (Homo sapiens, UniProt Q13422+Q96SW2).
T2 construct: effects of the compounds of the present disclosure on the expression of target proteins in cells; endogenous in cells; host or cells: human PBMCs (hPBMCs)
T2 sequence (Q13422 whole entry): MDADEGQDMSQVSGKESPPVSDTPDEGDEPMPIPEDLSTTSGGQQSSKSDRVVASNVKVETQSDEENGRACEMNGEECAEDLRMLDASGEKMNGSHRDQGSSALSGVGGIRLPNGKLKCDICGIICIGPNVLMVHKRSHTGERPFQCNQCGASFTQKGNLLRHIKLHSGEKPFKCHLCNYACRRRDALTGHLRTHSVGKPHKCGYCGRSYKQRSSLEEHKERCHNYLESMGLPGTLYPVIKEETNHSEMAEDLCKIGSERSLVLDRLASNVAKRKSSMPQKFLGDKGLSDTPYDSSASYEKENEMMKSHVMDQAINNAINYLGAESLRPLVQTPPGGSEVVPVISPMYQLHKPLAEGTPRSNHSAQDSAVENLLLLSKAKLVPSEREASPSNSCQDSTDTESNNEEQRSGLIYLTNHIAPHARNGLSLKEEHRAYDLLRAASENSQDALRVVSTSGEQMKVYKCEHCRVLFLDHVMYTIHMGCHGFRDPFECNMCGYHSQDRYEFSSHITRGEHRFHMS
T2 sequence (Q96SW2 whole entry): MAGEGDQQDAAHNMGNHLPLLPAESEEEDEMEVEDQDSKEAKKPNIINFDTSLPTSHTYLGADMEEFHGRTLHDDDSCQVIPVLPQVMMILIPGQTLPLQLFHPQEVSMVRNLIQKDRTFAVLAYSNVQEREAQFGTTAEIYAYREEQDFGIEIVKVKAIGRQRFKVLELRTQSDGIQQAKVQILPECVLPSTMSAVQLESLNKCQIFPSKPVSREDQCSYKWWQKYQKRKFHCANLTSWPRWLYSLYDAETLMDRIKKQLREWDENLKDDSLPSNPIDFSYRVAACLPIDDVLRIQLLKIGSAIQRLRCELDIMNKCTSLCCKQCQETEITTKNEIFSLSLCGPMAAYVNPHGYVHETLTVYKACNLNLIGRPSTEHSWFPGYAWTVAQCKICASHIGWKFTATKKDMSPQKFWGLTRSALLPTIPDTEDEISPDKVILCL
T2 sequence (Q16531 whole entry partner): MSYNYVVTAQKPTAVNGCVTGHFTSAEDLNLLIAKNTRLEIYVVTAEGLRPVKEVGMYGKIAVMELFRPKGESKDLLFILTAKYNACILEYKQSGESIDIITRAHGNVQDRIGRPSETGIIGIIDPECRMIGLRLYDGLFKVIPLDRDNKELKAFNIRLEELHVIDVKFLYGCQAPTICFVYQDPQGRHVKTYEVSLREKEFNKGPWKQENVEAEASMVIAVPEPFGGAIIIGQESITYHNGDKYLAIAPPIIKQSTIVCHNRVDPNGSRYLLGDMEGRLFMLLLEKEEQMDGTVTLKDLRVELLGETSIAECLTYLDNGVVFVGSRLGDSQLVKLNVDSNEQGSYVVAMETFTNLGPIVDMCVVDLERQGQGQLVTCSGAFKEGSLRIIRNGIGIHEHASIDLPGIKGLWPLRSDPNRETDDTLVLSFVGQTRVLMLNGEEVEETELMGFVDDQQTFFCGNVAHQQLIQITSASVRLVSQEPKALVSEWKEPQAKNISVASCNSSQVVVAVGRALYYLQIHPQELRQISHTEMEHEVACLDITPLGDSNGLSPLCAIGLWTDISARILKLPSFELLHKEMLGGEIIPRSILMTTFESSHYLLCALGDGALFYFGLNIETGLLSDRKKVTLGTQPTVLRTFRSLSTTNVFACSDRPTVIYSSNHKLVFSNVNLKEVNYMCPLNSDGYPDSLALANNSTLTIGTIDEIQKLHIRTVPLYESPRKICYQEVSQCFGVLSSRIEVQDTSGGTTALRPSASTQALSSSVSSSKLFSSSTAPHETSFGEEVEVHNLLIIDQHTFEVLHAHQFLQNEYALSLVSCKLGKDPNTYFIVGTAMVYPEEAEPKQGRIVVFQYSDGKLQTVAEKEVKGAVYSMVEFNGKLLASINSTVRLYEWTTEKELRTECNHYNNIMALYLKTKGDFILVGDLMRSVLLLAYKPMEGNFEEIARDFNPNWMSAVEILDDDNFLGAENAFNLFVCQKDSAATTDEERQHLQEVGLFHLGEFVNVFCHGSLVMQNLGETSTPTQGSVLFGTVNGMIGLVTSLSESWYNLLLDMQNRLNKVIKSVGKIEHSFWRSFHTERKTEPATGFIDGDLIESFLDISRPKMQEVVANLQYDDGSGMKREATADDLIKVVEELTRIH
Put plainly: Western-blot assay, substrate protein degradation in hPBMCs: IKZF1. The class given is cell-based. The note with it: compounds at 50 nM and 500 nM, 24 hours.

Test [3] addresses T3, IKZF2 (Homo sapiens, UniProt Q96SW2+Q9UKS7).
T3 construct: effects of the compounds of the present disclosure on the expression of target proteins in cells; endogenous in cells; host or cells: human PBMCs (hPBMCs)
Put plainly: Western-blot assay, substrate protein degradation in hPBMCs: IKZF2. The class given is cell-based. To be noted: compounds at 50 nM and 500 nM, 24 hours.

Test [4] deals with T4, IKZF3 (Homo sapiens, UniProt Q96SW2+Q9UKT9).
T4 construct: effects of the compounds of the present disclosure on the expression of target proteins in cells; endogenous in cells; host or cells: human PBMCs (hPBMCs)
T4 sequence (Q9UKT9 whole entry): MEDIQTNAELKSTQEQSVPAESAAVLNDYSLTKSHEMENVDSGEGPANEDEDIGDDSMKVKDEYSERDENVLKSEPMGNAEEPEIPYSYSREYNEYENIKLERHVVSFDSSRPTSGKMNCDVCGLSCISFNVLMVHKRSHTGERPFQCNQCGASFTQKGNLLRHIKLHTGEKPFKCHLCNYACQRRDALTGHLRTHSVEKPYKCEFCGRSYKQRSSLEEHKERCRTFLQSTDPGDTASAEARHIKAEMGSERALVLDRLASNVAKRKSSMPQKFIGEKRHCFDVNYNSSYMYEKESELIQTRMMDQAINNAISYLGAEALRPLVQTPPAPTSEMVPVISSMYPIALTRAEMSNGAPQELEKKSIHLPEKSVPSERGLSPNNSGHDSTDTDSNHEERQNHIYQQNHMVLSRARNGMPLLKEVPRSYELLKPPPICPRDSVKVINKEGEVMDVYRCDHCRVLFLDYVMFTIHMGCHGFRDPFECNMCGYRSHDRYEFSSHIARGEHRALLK
T4 sequence (Q96SW2 whole entry): as the sequence (Q96SW2 whole entry) above
T4 sequence (Q16531 whole entry partner): as the sequence (Q16531 whole entry partner) above
Put plainly: Western-blot assay, substrate protein degradation in hPBMCs: IKZF3. Type of test: cell-based. The note with it: compounds at 50 nM and 500 nM, 24 hours.

The target in test [5] is T5, CK1α (Homo sapiens, UniProt P48729+Q96SW2).
T5 construct: effects of the compounds of the present disclosure on the expression of target proteins in cells; endogenous in cells; host or cells: human PBMCs (hPBMCs)
T5 sequence (P48729 whole entry): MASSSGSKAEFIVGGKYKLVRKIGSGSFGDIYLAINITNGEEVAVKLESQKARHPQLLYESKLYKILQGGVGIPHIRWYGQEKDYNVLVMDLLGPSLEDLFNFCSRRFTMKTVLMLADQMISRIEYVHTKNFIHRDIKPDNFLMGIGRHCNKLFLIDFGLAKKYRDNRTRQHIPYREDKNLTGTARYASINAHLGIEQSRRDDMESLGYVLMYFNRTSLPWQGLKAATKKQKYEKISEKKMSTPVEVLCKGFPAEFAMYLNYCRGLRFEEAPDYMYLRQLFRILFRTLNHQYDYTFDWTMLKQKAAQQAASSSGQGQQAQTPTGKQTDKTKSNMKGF
T5 sequence (Q96SW2 whole entry): as the sequence (Q96SW2 whole entry) above
T5 sequence (Q16531 whole entry partner): as the sequence (Q16531 whole entry partner) above
Nature of the test: Western-blot assay, substrate protein degradation in hPBMCs: CK1α. Type of test: cell-based. The note with it: compounds at 50 nM and 500 nM, 24 hours.

Test [6] concerns the target T6, GSPT1 (Homo sapiens, UniProt P15170+Q96SW2).
T6 construct: effects of the compounds of the present disclosure on the expression of target proteins in cells; endogenous in cells; host or cells: human PBMCs (hPBMCs)
Nature of the test: Western-blot assay, substrate protein degradation in hPBMCs: GSPT1. The class given is cell-based. To be noted: compounds at 50 nM and 500 nM, 24 hours.

Test [7] has as its system MM.1S. Nature of the test: Cell viability assay (CellTiter-Meiluncell Luminescent), tumor cell proliferation, MM.1S. To be noted: Homo sapiens, MM1.S, 96 h, read-out: inhibitory activity (IC50, nM) against tumor cells proliferation, MM.1S.
The subject of test [8] is MGC803. Put plainly: Cell viability assay (CellTiter-Meiluncell Luminescent), tumor cell proliferation, MGC803. To be noted: Homo sapiens, MGC-803, 96 h, read-out: inhibitory activity (IC50, nM) against tumor cells proliferation, MGC803.
Test [9] relates to Jurkat. Nature of the test: Cell viability assay (CellTiter-Meiluncell Luminescent), tumor cell proliferation, Jurkat. The note with it: Homo sapiens, 96 h, read-out: inhibitory activity (IC50, nM) against tumor cells proliferation, Jurkat.
Procedure: On the following day, the test compounds of the present disclosure were subjected to serial dilution. […] Subsequently, 0.5 µL of the test compound dilution was transferred into the 96-well plate containing the cells, with each well containing 100 µL of cell culture medium. […] Into the 96-well plate, the diluted test compounds and corresponding detection reagents were added, resulting in final test compound concentrations of 500 nM and 10 nM, respectively.
After the cells were treated with the compounds of the present disclosure for a specified period, the cell viability assay reagent was added to the culture medium according to the kit's instructions to determine cell viability. […] All controls were treated using the same procedure as the compounds of the present disclosure. The growth inhibition curves for the compounds of the present disclosure were plotted using Prism GraphPad software, and the IC50 values were calculated therefrom.

T1 sequence (P30291 whole entry): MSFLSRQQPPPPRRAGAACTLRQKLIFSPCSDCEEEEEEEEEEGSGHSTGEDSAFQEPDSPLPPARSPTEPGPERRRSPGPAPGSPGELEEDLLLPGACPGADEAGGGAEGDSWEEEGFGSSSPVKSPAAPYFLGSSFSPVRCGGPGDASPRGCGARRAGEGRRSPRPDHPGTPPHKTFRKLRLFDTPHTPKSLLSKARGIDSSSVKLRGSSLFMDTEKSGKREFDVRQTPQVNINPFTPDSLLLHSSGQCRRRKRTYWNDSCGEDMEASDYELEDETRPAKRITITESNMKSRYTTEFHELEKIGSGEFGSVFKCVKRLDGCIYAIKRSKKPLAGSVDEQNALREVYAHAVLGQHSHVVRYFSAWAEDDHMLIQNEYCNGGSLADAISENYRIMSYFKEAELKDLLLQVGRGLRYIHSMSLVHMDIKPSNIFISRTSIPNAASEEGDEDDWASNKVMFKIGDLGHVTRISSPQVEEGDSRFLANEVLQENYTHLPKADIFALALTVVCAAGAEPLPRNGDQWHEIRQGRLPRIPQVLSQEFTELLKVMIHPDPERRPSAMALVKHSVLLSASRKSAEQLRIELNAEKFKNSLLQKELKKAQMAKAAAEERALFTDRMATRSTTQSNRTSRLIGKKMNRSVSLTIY
T1 sequence (Q96SW2 whole entry): as the sequence (Q96SW2 whole entry) above
T1 sequence (Q16531 whole entry partner): as the sequence (Q16531 whole entry partner) above
T6 sequence (P15170 whole entry): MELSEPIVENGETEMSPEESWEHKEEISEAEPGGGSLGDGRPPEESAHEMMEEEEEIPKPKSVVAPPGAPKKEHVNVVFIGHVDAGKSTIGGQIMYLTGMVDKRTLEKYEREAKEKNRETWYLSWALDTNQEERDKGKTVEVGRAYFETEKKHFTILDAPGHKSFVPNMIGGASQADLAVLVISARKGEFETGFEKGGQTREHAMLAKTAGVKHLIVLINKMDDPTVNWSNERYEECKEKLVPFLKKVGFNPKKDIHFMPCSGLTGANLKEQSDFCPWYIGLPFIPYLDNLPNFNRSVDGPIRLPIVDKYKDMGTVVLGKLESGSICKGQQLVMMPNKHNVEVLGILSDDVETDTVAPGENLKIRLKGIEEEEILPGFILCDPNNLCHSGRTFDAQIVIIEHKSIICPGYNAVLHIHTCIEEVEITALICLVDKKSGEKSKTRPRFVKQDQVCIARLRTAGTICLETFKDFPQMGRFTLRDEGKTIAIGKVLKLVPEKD
T6 sequence (Q96SW2 whole entry): as the sequence (Q96SW2 whole entry) above
T6 sequence (Q16531 whole entry partner): as the sequence (Q16531 whole entry partner) above

`Cc1ccsc1C1=CCN(Cc2ccc3c(c2)CN(N2CCC(=O)NC2=O)C3=O)CC1` [GT-04870, 1-(5-((4-(3-methylthiophen-2-yl)-3,6-dihydropyridin-1(2H)-yl)methyl)-1-oxoisoindolin-2-yl)dihydropyrimidine-2,4(1H,3H)-dione]: the “WEE1 substrate protein remaining %” value in test [1] is “A ("A" is defined as 0% ≤ substrate protein remaining % ≤ 80%)”. In addition, the “IKZF1 substrate protein remaining %” value in test [2] is reported as “A ("A" is defined as 0% ≤ substrate protein remaining % ≤ 80%)”. The “IKZF2 substrate protein remaining %” value in test [3] is listed as “A ("A" is defined as 0% ≤ substrate protein remaining % ≤ 80%)”. The “IKZF3 substrate protein remaining %” value in test [4] is on record as “A ("A" is defined as 0% ≤ substrate protein remaining % ≤ 80%)”. Moreover, the “CK1α substrate protein remaining %” value in test [5] is “B ("B" is defined as 80%< substrate protein remaining %≤ 100%)”. Moreover, the “GSPT1 substrate protein remaining %” value in [6] is “A ("A" is defined as 0% ≤ substrate protein remaining % ≤ 80%)”. Moreover, the IC50 was in the range of 50 to 100 nM in [7], 100 to 300 nM in test [8] and 100 to 300 nM in test [9].

As to `O=C1CCN(N2Cc3cc(CN4CCC(N(c5ccccc5)c5ccccn5)CC4)ccc3C2=O)C(=O)N1` [GT-04940, 1-(1-oxo-5-((4-(phenyl(pyridin-2-yl)amino)piperidin-1-yl)methyl)isoindolin-2-yl)dihydropyrimidine-2,4(1H,3H)-dione], the “WEE1 substrate protein remaining %” value in [1] is reported as “A ("A" is defined as 0% ≤ substrate protein remaining % ≤ 80%)”. Also, the “IKZF1 substrate protein remaining %” value in test [2] is given as “A ("A" is defined as 0% ≤ substrate protein remaining % ≤ 80%)”. Further, the “IKZF2 substrate protein remaining %” value in test [3] was “A ("A" is defined as 0% ≤ substrate protein remaining % ≤ 80%)”. For the same molecule, the “IKZF3 substrate protein remaining %” value in test [4] is on record as “A ("A" is defined as 0% ≤ substrate protein remaining % ≤ 80%)”. For the same molecule, the “CK1α substrate protein remaining %” value in test [5] is listed as “A ("A" is defined as 0% ≤ substrate protein remaining % ≤ 80%)”. For the same molecule, in test [6], the “GSPT1 substrate protein remaining %” value is given as “A ("A" is defined as 0% ≤ substrate protein remaining % ≤ 80%)”. Moreover, the IC50 in test [7] lay in the range of 50 to 100 nM; in test [8] it was 100 to 300 nM; in test [9] it was 100 to 300 nM.

In the case of `O=C1CCN(N2Cc3cc(CN4CCN(c5cccc6sccc56)CC4)ccc3C2=O)C(=O)N1` [GT-04866, 1-(5-((4-(benzo[b]thiophen-4-yl)piperazin-1-yl)methyl)-1-oxoisoindolin-2-yl)dihydropyrimidine-2,4(1H,3H)-dione], the “WEE1 substrate protein remaining %” value in test [1] is recorded as “A ("A" is defined as 0% ≤ substrate protein remaining % ≤ 80%)”. Also, the “IKZF1 substrate protein remaining %” value in test [2] is “A ("A" is defined as 0% ≤ substrate protein remaining % ≤ 80%)”. The “IKZF2 substrate protein remaining %” value in test [3] is “B ("B" is defined as 80%< substrate protein remaining %≤ 100%)”. The “IKZF3 substrate protein remaining %” value in test [4] is “B ("B" is defined as 80%< substrate protein remaining %≤ 100%)”. For the same molecule, the “CK1α substrate protein remaining %” value in test [5] is reported as “B ("B" is defined as 80%< substrate protein remaining %≤ 100%)”. For the same molecule, the “GSPT1 substrate protein remaining %” value in test [6] is recorded as “A ("A" is defined as 0% ≤ substrate protein remaining % ≤ 80%)”. Moreover, the IC50 in test [7] was 100 to 300 nM; in test [8], 300 to 500 nM; in test [9], 300 to 500 nM.
